Drawing on ChEMBL document CHEMBL4665648, “Potent and selective inhibitors of receptor-interacting protein kinase 1 that lack an aromatic back pocket group” (Bioorg Med Chem Lett, 2019), this text covers inhibition, logD and Vd for one molecule.

The inhibition is the change of the read-out against control, counted positive when it falls. Broadly, the logD is lipophilicity at a set pH, counting ionised and neutral species. High values mean higher lipophilicity, low ones lower lipophilicity.

Series [1] deals with Protein kinase C beta type (Homo sapiens) (UniProt P05771). Description: Inhibition of recombinant human His-tagged full length PKCbeta1 expressed in insect expression system using Ser/Thr 07 as substrate at 10 uM incubated for 60 mins by Z'-lyte assay relative to control.
Series [2] concerns the target Epidermal growth factor receptor (Homo sapiens) (UniProt P00533). The experiment in a line: Inhibition of recombinant human GST-tagged EGFR (668 to 1210 residues) expressed in baculovirus expression system using Tyr 4 as substrate at 10 uM incubated for 60 mins by Z'-Lyte assay relative to control.
For series [3], the target named is Serine/threonine-protein kinase PLK3 (Homo sapiens) (UniProt Q9H4B4). Description: Inhibition of recombinant human GST-tagged PLK3 (58 to 340 residues) expressed in baculovirus expression system using Ser/Thr 16 as substrate at 10 uM incubated for 60 mins by Z'-lyte assay relative to control.
A short description of series [4]: Lipophilicity, logD of compound at pH 7.4. Format: physicochemical. To be noted: buffer.
Series [5] concerns the target Receptor-interacting serine/threonine-protein kinase 2 (Homo sapiens) (UniProt O43353). The experiment in a line: Inhibition of tracer 178 binding to recombinant human His-tagged RIPK2 (1 to 299 residues) expressed in insect expression system at 10 uM incubated for 60 mins by Lanthascreen assay relative to control. In general terms: TR-FRET usually uses a lanthanide donor and a delayed reading to cut background.

The target in series [6] is Death-associated protein kinase 3 (Homo sapiens) (UniProt O43293). Description: Inhibition of recombinant human GST-tagged full length ZIPK expressed in baculovirus expression system using Ser/Thr 13 as substrate at 10 uM incubated for 60 mins by Z'-Lyte assay relative to control.
For series [7], the target named is Casein kinase I isoform alpha (Homo sapiens) (UniProt P48729). The experiment in a line: Inhibition of recombinant human GST-tagged full length CK1alpha1 expressed in baculovirus expression system using Ser/Thr 11 as substrate at 10 uM incubated for 60 mins by Z'-Lyte assay relative to control.
Series [8] has as its target Ephrin type-A receptor 3 (Homo sapiens) (UniProt P29320). The experiment in a line: Inhibition of tracer 236 binding to recombinant human His-tagged EPHA3 (569 to 976 residues) expressed in baculovirus expression system at 10 uM incubated for 60 mins by Lanthascreen assay relative to control.
Series [9] addresses Sphingosine kinase 1 (Homo sapiens) (UniProt Q9NYA1). The experiment in a line: Inhibition of recombinant human GST-tagged full length SPHK1 expressed in baculovirus expression system using sphingosine lipid substrate mixture as substrate at 10 uM incubated for 60 mins by Adapta assay relative to control.
Series [10] concerns the target RAC-alpha serine/threonine-protein kinase (Homo sapiens) (UniProt P31749). The experiment in a line: Inhibition of recombinant human His-tagged full length AKT1 expressed in baculovirus expression system using Ser/Thr 06 as substrate at 10 uM incubated for 60 mins by Z'-Lyte assay relative to control.
A short description of series [11]: Volume of distribution in Sprague-Dawley rat at 0.5 mg/kg, iv or 2 mg/kg, po. The class given is ADME, organism-based. To be noted: in vivo.

RAC-alpha serine/threonine-protein kinase (Homo sapiens), sequence (P31749 whole entry): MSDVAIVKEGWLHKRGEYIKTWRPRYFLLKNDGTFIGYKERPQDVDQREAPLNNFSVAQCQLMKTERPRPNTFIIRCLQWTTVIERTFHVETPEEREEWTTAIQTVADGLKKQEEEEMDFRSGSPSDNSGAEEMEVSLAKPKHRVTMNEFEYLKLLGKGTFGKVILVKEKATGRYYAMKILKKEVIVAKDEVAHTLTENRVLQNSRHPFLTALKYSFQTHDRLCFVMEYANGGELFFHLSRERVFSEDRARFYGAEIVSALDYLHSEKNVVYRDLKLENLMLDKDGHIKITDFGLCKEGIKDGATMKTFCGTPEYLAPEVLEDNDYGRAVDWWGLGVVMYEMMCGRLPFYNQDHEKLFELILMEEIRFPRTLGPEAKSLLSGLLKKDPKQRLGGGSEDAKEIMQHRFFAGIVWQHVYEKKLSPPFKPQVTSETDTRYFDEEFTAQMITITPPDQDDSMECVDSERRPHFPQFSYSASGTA
Sphingosine kinase 1 (Homo sapiens), sequence (Q9NYA1 whole entry): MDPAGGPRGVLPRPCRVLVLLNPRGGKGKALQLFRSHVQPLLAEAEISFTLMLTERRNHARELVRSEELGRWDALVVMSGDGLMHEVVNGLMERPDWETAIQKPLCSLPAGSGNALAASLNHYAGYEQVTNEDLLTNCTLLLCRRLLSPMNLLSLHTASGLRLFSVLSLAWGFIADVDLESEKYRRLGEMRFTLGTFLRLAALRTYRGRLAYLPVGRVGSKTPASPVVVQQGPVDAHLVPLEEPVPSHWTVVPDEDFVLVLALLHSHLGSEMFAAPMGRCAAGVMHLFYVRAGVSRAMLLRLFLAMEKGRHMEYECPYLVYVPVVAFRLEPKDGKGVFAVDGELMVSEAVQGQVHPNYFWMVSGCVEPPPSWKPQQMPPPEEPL
Casein kinase I isoform alpha (Homo sapiens), sequence (P48729 whole entry, looked up, the tested form may be a part, canonical isoform): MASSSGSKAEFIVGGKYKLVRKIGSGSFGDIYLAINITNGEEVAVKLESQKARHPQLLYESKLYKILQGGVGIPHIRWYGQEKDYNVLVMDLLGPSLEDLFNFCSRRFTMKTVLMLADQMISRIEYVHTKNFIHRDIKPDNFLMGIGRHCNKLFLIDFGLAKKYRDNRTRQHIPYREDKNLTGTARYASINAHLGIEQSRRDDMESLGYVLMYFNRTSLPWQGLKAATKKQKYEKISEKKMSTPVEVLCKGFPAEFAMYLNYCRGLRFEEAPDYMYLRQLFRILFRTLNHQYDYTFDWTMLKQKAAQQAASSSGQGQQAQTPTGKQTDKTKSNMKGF
Receptor-interacting serine/threonine-protein kinase 2 (Homo sapiens), sequence (O43353 whole entry, the tested form may be a part): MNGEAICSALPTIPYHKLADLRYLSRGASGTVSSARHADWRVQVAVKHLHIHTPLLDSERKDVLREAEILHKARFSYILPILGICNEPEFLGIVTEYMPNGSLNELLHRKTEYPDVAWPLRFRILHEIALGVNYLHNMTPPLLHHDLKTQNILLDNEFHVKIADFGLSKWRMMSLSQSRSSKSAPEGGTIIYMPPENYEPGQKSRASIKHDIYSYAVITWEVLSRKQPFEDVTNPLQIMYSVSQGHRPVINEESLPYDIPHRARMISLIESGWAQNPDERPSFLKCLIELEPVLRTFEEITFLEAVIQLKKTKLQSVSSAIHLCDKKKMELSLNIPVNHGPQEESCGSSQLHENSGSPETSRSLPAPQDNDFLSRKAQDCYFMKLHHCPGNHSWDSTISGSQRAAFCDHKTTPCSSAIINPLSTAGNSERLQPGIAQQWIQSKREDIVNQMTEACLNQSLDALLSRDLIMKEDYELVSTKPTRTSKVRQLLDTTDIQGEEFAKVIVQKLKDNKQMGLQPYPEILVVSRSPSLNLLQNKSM
Epidermal growth factor receptor (Homo sapiens), sequence (P00533 whole entry, the tested form may be a part): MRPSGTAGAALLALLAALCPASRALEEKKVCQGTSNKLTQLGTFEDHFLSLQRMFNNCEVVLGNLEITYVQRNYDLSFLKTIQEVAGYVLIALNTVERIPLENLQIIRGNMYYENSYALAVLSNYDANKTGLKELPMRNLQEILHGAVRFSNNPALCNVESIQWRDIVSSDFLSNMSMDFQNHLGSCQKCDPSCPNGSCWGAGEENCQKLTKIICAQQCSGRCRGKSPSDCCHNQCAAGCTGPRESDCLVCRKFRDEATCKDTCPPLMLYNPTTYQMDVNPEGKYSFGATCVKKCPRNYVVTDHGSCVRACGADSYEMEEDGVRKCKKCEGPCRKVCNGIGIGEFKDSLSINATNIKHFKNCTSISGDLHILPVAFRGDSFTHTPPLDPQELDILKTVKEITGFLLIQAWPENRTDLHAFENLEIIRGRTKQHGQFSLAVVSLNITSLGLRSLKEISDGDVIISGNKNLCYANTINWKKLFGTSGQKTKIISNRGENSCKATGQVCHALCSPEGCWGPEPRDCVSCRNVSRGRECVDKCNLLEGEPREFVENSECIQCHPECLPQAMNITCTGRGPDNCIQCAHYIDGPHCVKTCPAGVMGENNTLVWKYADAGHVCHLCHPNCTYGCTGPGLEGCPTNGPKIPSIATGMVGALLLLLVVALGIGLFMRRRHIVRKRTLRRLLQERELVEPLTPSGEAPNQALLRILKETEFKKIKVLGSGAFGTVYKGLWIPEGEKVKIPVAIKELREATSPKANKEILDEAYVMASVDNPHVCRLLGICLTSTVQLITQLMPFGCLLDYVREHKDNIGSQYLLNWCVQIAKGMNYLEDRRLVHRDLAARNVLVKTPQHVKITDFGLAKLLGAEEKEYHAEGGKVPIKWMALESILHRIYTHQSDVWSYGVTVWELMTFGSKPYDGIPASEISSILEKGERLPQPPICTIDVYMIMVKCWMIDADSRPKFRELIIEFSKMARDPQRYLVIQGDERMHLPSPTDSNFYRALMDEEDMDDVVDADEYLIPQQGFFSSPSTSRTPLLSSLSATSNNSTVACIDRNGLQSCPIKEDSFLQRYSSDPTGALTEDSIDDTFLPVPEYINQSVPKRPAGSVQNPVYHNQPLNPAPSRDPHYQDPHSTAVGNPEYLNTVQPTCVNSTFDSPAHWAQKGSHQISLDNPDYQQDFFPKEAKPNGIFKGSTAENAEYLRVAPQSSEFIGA
Protein kinase C beta type (Homo sapiens), sequence (P05771 whole entry, looked up, the tested form may be a part): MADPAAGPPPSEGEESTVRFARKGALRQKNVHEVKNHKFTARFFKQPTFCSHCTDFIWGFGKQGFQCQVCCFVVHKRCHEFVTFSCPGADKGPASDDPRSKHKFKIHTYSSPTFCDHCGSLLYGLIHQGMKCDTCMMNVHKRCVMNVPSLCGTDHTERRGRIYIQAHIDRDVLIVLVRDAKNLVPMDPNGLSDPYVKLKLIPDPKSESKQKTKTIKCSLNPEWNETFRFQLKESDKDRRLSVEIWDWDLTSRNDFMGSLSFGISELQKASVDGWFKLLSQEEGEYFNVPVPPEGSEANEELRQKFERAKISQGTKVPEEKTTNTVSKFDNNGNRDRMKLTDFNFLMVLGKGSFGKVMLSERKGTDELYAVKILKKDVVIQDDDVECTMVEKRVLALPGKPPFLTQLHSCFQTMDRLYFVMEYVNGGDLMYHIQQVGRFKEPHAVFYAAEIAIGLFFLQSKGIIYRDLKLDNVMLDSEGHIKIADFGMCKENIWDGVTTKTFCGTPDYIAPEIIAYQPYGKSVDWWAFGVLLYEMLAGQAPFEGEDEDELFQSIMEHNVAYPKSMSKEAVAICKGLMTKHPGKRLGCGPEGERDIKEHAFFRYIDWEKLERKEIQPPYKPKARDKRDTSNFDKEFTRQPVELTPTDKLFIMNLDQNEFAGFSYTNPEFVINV
Serine/threonine-protein kinase PLK3 (Homo sapiens), sequence (Q9H4B4 whole entry, looked up, the tested form may be a part): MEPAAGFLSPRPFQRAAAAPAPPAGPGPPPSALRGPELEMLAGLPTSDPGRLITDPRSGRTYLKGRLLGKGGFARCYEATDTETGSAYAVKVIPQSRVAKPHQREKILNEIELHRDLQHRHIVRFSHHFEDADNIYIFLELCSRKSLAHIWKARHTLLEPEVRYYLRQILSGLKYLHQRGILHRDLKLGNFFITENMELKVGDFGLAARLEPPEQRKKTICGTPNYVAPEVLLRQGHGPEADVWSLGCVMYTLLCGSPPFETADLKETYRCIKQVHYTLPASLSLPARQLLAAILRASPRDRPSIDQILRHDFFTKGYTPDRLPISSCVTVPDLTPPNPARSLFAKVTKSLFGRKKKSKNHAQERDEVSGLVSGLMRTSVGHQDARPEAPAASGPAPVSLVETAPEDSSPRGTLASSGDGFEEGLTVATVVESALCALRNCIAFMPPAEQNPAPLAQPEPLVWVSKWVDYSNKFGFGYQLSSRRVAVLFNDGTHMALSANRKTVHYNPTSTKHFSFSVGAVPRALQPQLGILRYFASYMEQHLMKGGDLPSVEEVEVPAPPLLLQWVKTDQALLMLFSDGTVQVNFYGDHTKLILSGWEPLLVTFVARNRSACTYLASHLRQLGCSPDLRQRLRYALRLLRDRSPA
Death-associated protein kinase 3 (Homo sapiens), sequence (O43293 whole entry, looked up, canonical isoform): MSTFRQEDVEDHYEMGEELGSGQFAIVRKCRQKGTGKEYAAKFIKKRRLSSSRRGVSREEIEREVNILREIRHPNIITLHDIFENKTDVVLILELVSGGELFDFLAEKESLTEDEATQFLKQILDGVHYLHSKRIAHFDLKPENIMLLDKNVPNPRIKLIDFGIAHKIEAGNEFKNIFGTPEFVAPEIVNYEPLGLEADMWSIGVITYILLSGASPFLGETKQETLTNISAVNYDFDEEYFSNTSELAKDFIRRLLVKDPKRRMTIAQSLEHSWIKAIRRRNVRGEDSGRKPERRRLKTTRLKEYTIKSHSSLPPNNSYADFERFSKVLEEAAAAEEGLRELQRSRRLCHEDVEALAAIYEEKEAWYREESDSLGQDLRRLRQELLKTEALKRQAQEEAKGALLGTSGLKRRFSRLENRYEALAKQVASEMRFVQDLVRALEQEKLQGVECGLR

For `CN1C(=O)[C@@H](NC(=O)c2n[nH]c3ncc(C(F)(F)C(F)(F)F)cc23)COc2ccccc21`, the inhibition in series [1] is 5.5%; in series [2], -5%; in series [3] it was 7%; in series [5], -1%; in [6], 7%; in series [7] it was 1.5%. In addition, the inhibition in series [8] was 5.5%; in series [9], -8%; in series [10], -0.5%. Moreover, in series [4], the logD came out at 4.1. The molecule further yielded a Vd in series [11] of 2.8 L/kg.
